Results as given in article PMC5085761 (International Journal of Molecular Sciences, 2016).

Assays:
human BCRP = molecular target: T1, human BCRP (Homo sapiens, UniProt Q9UNQ0); assay: Inhibition of tracer uptake in BCRP-expressing vesicles; assay type: in vitro ADME; conditions: ES 0.1 µM, 100 µM–12.5 mM fluciclovine
T1 construct: purchased GenoMembrane Co., Ltd. (Kanagawa, Japan); host or cells: Sf9
T1 sequence (Q9UNQ0 1-655): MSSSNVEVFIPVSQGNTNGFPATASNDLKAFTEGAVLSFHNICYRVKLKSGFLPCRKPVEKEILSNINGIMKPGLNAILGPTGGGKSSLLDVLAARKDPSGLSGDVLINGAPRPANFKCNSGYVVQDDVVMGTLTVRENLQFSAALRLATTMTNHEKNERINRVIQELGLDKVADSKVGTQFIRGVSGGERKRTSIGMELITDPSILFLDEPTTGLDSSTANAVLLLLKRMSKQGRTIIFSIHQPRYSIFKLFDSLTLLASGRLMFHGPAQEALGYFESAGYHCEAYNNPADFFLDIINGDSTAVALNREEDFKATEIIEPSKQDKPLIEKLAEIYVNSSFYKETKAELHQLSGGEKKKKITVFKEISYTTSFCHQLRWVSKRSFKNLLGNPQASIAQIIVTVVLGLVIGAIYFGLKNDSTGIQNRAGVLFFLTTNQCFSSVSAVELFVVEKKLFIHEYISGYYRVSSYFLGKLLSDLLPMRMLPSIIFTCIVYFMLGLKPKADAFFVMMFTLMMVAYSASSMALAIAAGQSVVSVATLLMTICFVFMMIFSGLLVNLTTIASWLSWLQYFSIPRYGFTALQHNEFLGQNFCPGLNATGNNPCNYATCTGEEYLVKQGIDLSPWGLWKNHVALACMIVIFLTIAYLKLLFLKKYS
Method: For ABC transporters, experimental kits containing Sf9-derived vesicles with high expression levels of human P-gp, MRP4, BCRP, and each ABC transporter (including buffer, ATP/AMP solution, and glutathione) were purchased from GenoMembrane Co., Ltd. (Kanagawa, Japan).
Vesicular transport assays were carried out according to the manufacturer’s protocol. […] The reaction was started by suspending 50 μg of vesicles (10 μL) in 40 μL of the reaction buffer. After incubation for an appropriate period of time, the reaction was stopped by the addition of ice-cold stop buffer (40 mM MOPS-Tris and 70 mM KCl; pH 7.0), after which the solution was filtered through a 0.45 μm HA filter (Millipore Corp., Billerica, MA, USA) using suction, and was washed twice in 5 mL of ice-cold stop buffer. The radioactivity of the filter was measured with a Tri-Carb 2910TR liquid scintillation counter (PerkinElmer) using Ultima Gold (PerkinElmer). The amount of tracer uptake was normalized to the membrane protein amount described in the product information sheets.

OAT1 = molecular target: T2, OAT1 (Homo sapiens, UniProt Q4U2R8); assay: Inhibition of tracer uptake in OAT1-expressing cells; assay type: in vitro ADME; conditions: OAT1, tracer [14C]PAH 1 µM
T2 construct: host or cells: Flp-in-293
T2 sequence (Q4U2R8 1-563): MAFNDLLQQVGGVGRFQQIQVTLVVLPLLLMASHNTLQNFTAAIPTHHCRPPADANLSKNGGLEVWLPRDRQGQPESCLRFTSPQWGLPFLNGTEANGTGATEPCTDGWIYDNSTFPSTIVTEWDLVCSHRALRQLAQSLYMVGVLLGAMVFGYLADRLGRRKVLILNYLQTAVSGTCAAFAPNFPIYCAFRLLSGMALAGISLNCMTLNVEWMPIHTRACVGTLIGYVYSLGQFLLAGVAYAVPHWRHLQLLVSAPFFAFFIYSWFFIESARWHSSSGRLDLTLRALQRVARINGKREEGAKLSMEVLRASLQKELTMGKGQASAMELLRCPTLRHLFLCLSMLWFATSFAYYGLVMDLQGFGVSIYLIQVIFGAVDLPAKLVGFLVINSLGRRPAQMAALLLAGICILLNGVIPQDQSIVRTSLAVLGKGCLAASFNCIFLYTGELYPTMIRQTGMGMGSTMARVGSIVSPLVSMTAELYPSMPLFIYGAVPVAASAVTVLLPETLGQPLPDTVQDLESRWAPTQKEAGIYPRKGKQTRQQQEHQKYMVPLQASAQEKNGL
Method: For the SLC transporter experiments, Mock Flp-in-293 cells (Flp/mock), OAT1-expressing Flp-in-293 cells (Flp/OAT1), mock HEK293 cells (HEK/mock), and OATP1B3-expressing HEK293 cells (HEK/OATP1B3) were obtained from Kanazawa University (Ishikawa, Japan). Briefly, Flp-in-293 and HEK293 cells were transfected with the appropriate plasmid DNA and selected using antibiotics (hygromycin or G-418). All cell lines were cultured in DMEM (Life Technologies Japan) supplemented with 10% (v/v) fetal bovine serum (American Type Culture Collection) and antibiotics (100 U/mL penicillin and 100 μg/mL streptomycin (Life Technologies Japan) for mock cells, 0.2 mg/mL hygromycin for Flp/OAT1 cells, and 1.2 mg/mL G-418 (Roche Diagnostics K.K., Tokyo, Japan) for HEK/OATP1B3 cells) at 37 °C under an atmosphere containing 5% CO2. […]
The experiments were performed as described previously, with minor modifications. […] The cells were lysed in 0.3 mL of 0.1N NaOH at room temperature, after which the radioactivity of each aliquot was measured as described above. The protein concentration of the cell lysate was determined with a VersaMax microplate reader (Molecular Devices Japan K.K., Osaka, Japan) or SpectraMax i3x (Molecular Devices Japan K.K.; only for OATP1B1) using a BCA Protein Assay Kit (Thermo Fisher Scientific, Kanagawa, Japan). Tracer uptake was expressed as pmol/mg protein. […]

inhibition of transport of BCRP-specific substrate [3H]estrone-3-sulfate (human BCRP): does not inhibit | IC50 (OAT1): 3.98 ± 1.77 mM
SMILES: N[C@]1(C(=O)O)C[C@@H](F)C1 [fluciclovine]
